# Test results published in patent US8088757B2, “Betulinol derivatives as anti-cancer agents” (priority 2004, dated 2012).
# Read-outs that look alike come from different tables or passages of the source.
# How the values were obtained:
# LNCaP = assay: MTT cytotoxicity assay, LNCaP prostate cancer cells; format: cell-based, human; conditions: Homo sapiens, read-out: Growth Inhibition %; for inhibition at 25 µM: 2.5 × 10^−5 M; for inhibition at 2.5 µM: 2.5 × 10^−6 M; for inhibition at 0.25 µM: 2.5 × 10^−7 M
# Procedure: The human prostate cancer LNCaP, PC-3, and DU-145 cell lines, as well as human fibroblast cell line, were obtained from the American Type Culture Collection (“ATCC”) and maintained in RPMI-1640, F-12k, and MEM mediums, respectively, supplemented with 10% FBS. Cell lines were maintained at 37° C. under a humidified atmosphere and 5% CO2 for testing of the cytotoxicity of betulinol derivatives. The cytotoxicity assay was performed using MTT assay according to the instructions of ATCC protocol. Cells 1×10^5 in 0.1 ml/well were plated in 96-well culture plates (Costar) and incubated with a different dilution of betulinol derivatives for 24, 48, and 72 hours. Ten μl of 3-[4,5-dimethylthiazol-2-yl]-2,5 diphenyl tetrazolium bromide was added into each well at the end of each incubation period. The reaction product, formazan, was dissolved in the detergent, and the absorbance was read at 540 nm (Ref).
# However, these compounds were not tested on prostate cancer LNCaP cell line by NCI. […] The anti-tumor activity of the compounds was determined at three doses and the total growth inhibition kill effect as pertinent of the control at 24, 48, and 72 hours as presented in Table 11.
# 184B5/HER = assay: In vitro cytotoxicity, Breast (1), 184B5/HER; format: cell-based; conditions: 1 × 10^−4 M
# [1] = Solubility in DMSO diluted with culture medium (GC standard curve); conditions: for State of solution: 0.5 mg/mL BA
# Procedure: The residue was dissolved in chloroform analyzed on GC.
# Ethyl ether was then evaporated. […] Concentration of drug in the above solutions was analyzed by GC and determined from the standard solubility curve.
# [2] = Solubilization in PBS containing human γ-globulin, human albumin and ethanol; conditions: 1 × 10^−3 mol/L
# From the text: Human γ-Globulin and human albumin are two major biocompatible components in human serum.
# LNCaP xenografts = system: LNCaP xenografts; set-up: species or system athymic mice; conditions: mouse, in vivo
# Procedure: All the animal studies were performed according to the guidelines and approval of the Institutional Animal Care and Use Committee and Research Animal Resource Center of Weill Medical College of Cornell University, New York. Twelve mice of 13 weeks of age were purchased from The National Cancer Institute (NCI) and were housed in a pathogen-free environment under controlled conditions of light and humidity and with free access to food and water. LNCaP cells were grown in RPMI-1640 with 10% FBS until 80-90% confluent. Cells were scraped into PBS and collected by centrifugation. The LNCAP cell pellets were suspended in Matrigel (Ref) at 2.5×10^7 cells/ml. Mice were injected subcutaneously (“s.c.”) with 200 μl (5×10^6 cells) of the cell suspension at one site on the flank. Visible tumor grew after 7-8 days following implantation and mice were divided into three groups of four mice each.
# Mice received s.c. injection daily for ten days. […] Tumors were measured daily with calipers, and tumor volumes were calculated by the formula: π/6(l×w×h). Animals were also weighed daily and monitored for general health status and vital signs of possible toxicity due to treatment. At the end of the treatment period, the animals were sacrificed and tumors were excised, weighed and prepared for immunohistochemical and histological studies. […]
# [3] = 1.34 mg in 31 μL ethanol + 700 μL human serum
smiles,measurement,setting,value
"C=C(C)C1CCC2(C(=O)O)CC[C@]3(C)[C@H](CC[C@@H]4[C@@]5(C)CCC(=O)C(C)(C)[C@@H]5CC[C@]43C)C12 (stereo partly drawn) [Compound 4, Betulonic Acid]",inhibition at 25 µM,LNCaP; 24 hours,11.4%
same,inhibition at 2.5 µM,LNCaP; 24 hours,14.7%
same,inhibition at 0.25 µM,LNCaP; 24 hours,3.01%
same,inhibition at 25 µM,LNCaP; 48 hours,32.6%
same,inhibition at 2.5 µM,LNCaP; 48 hours,43%
same,inhibition at 0.25 µM,LNCaP; 48 hours,28.3%
same,Percent Killed,184B5/HER,Toxic
same,State of solution,[1]; 3% DMSO in culture medium,Suspension
same,State of solution,[1]; 9% DMSO in culture medium,Suspension
same,State of solution,[1]; 14% DMSO in culture medium,Cloudy
same,State of solution,[1]; 20% DMSO in culture medium,clear solution
same,State of solution,"[1]; 20% DMSO in culture medium, listed as BA",Clear
same,amount of betulonic acid dissolved,"[1]; out of 3 mg, 1% DMSO in culture medium containing 10% FBS, supernatant after centrifugation",0.4 mg
same,Observation,"[2]; ethanol 220 μL, γ-globulin 1.48 mL, albumin 0.49 mL",Cloudy
same,Observation,"[2]; ethanol 280 μL, γ-globulin 0 mL, albumin 2.50 mL",Complete
same,Observation,"[2]; ethanol 280 μL, γ-globulin (27 mg/mL in PBS) 2.50 mL, albumin (42 mg/mL in PBS) 0 mL",Suspension
same,Observation,"[2]; ethanol 308 μL, γ-globulin 0.69 mL, albumin 2.07 mL",Almost Clear
same,Observation,"[2]; ethanol 330 μL, γ-globulin 1.48 mL, albumin 1.48 mL",Little Cloudy
same,Observation,"[2]; ethanol 352 μL, γ-globulin 0.32 mL, albumin 2.85 mL",Clear
same,general health and vital signs during treatment,LNCaP xenografts,no adverse effects on vital signs
same,Observation,[3],Clear Solution
